{"source": "paper PMC4742234", "about": "“Screening of Drug Metabolizing Enzymes for the Ginsenoside Compound K In Vitro: An Efficient Anti-Cancer Substance Originating from Panax Ginseng” (PLoS ONE, 2016)", "format_in_all_cases": "in vitro ADME", "key": {"CYP2C9": {"target": "CYP2C9 (Homo sapiens, UniProt P11712)", "sequence (P11712 whole entry, canonical isoform)": "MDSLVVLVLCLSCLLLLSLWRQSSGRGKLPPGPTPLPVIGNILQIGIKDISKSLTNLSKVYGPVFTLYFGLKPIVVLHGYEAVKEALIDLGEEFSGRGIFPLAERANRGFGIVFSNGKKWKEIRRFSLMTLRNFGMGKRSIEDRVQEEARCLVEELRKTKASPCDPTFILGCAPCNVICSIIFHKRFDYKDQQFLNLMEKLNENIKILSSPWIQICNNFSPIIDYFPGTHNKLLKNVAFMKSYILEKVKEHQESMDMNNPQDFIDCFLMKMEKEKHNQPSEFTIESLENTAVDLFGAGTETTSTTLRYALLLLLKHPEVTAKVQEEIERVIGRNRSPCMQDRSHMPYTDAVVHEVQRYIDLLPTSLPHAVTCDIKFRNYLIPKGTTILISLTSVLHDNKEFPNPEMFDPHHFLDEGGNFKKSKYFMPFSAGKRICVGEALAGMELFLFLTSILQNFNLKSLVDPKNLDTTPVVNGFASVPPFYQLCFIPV", "assay": "Effect of specific inhibitor sulfaphenazole on CK metabolism in HLMs", "design": "tissue Cypex Ltd. (U.K.); host or cells: pooled human liver microsomes", "conditions": "CK 50 μM, in the presence of sulfaphenazole 1 μM", "method": "(§1) The method was conducted according to our previous study with some modifications. The CYP isoform-specific probe reactions used were phenacetin O-deethylation (for CYP1A2), coumarin 7-hydroxylation (for CYP2A6), tolbutamide 4-hydroxylation (for CYP2C9), metoprolol α-hydroxylation (for CYP2D6), chlorzoxazone 6-hydroxylation (for CYP2E1),S-Mephenytoin 4-hydroxylation (for CYP2C19), and midazolam 1-hydroxylation (for CYP3A4). The kinetic study of CK was conducted with HLMs. A 0.2 mL incubation mixture that consisted of CK (as a substrate), the HLMs (0.5 mg/mL) or CYP isoforms (10 pmol), and 0.1 M sodium phosphate buffer (pH 7.4) was pre-warmed for 5 min at 37°C. The reaction was initiated by the addition of 1 mg/mL triphosphopyridine nucleotide (NADPH). […]\n(§2) To screen the specific CYP isoform responsible for the CK metabolism, we determined the inhibitory effect of specific inhibitors on the metabolism of CK in the HLMs as described in detail previously. […] The inhibitory effects of the above specific inhibitors on the metabolic clearance rate of CK were evaluated separately to screen the CYP isoforms responsible for the CK metabolism. The relative activity of the CYP isoforms was calculated by dividing the peak area of CK when incubated with the inhibitor by that of CK from the negative controls. […]"}, "CYP3A4 [1]": {"target": "T1, CYP3A4 (Homo sapiens, UniProt P08684)", "T1 sequence (P08684 whole entry, canonical isoform)": "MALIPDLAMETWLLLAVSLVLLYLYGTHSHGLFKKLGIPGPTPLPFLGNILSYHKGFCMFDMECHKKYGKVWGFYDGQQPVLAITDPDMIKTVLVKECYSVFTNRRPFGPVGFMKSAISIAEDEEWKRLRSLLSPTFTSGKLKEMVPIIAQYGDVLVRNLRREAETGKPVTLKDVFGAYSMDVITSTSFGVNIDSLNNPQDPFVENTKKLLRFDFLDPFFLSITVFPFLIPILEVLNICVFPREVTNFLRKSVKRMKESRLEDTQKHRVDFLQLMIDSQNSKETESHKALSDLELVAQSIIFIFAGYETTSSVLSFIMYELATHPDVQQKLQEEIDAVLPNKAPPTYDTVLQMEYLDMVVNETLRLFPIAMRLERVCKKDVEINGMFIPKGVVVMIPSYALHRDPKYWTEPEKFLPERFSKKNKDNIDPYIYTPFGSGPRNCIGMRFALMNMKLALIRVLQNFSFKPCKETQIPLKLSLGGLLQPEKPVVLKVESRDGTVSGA", "assay": "Inhibition of CYP3A4 (midazolam 1-hydroxylation) by CK in HLMs", "design": "tissue Cypex Ltd. (U.K.); host or cells: pooled human liver microsomes", "method": "The method was conducted according to our previous study with some modifications. The CYP isoform-specific probe reactions used were phenacetin O-deethylation (for CYP1A2), coumarin 7-hydroxylation (for CYP2A6), tolbutamide 4-hydroxylation (for CYP2C9), metoprolol α-hydroxylation (for CYP2D6), chlorzoxazone 6-hydroxylation (for CYP2E1),S-Mephenytoin 4-hydroxylation (for CYP2C19), and midazolam 1-hydroxylation (for CYP3A4). The kinetic study of CK was conducted with HLMs. A 0.2 mL incubation mixture that consisted of CK (as a substrate), the HLMs (0.5 mg/mL) or CYP isoforms (10 pmol), and 0.1 M sodium phosphate buffer (pH 7.4) was pre-warmed for 5 min at 37°C. The reaction was initiated by the addition of 1 mg/mL triphosphopyridine nucleotide (NADPH). All the reagents were dissolved in methanol, and the final solvent concentration in all incubations (including the controls) was 1%. The final incubations were performed in a shaking water bath (37°C) for 30 min. The reactions were stopped by adding 0.2 mL ice-cold acetonitrile, which contains irbesartan (114.9 ng/mL) as the internal standard. The samples were vortexed for 5 min. After centrifugation (12000×g for 10 min), the supernatants were transferred, and aliquots of 20 μL were injected into the HPLC-MS/MS system for analysis.\nCK (10–100 μM) and a single CYP isoform-specific substrate (with a concentration similar to its corresponding Kmvalue) were used to determine the inhibitory effect of CK on specific CYP isoforms as described in detail previously. Substrates including phenacetin, coumarin, tolbutamide, metoprolol, chlorzoxazone, S-Mephenytoin, and midazolam were used at concentrations of 10, 5, 100, 7.5, 40, 100, and 5 μM, respectively. All incubation conditions were the same as mentioned above. The inhibitory effects on the CYP isoforms were investigated individually by incubating the HLMs in the absence or presence of CK. The incubation solution with the solvent that was used to dissolve CK was regarded as the negative control, and the solutions containing the specific inhibitors mentioned above were considered the positive controls.\nThe inhibition data obtained from the pilot experiments were used as a guide to generate the appropriate probe substrate and test inhibitor concentrations for the determination of the Ki values for each CYP isoform. The isoform-specific probe substrate concentrations used were 25–200 μM tolbutamide for CYP2C9 and 5–50 μM midazolam for CYP3A4. The CK concentrations used were 10–100 μM.\nWhen Ki>Ki’, the intersection was above the [I] axis in the plot of S/V against [I] and below it in the Dixon plot; the opposite was true if Ki<Ki’. In the special case where Ki = Ki’ (simple non-competitive inhibition), the intersections occurred on the [I] axis in both plots. The asymptotic cases of competitive and uncompetitive inhibition can be generated by inserting the conditions Ki’ to ∞ for competitive inhibition, or Ki to ∞ for uncompetitive inhibition.\nAs described in detail previously, to determine the major enzymes responsible for the CK metabolism in HLMs, the metabolic clearance rate of the incubation solution without any specific inhibitor for CK was considered as 100%. The effects of the specific inhibitors on the metabolic clearance rate of CK were evaluated with SPSS one-way analysis of variance (SPSS Inc., Chicago, IL, USA). P<0.05 was considered significant in all cases. The apparent kinetic parameters of CK (Km and Vmax) were determined by fitting the Michaelis–Menten equation using the GraphPad Prism Enzyme Kinetic 5 Demo software (GraphPad Co. Ltd, San Diego, CA, USA)."}, "CYP3A4 [2]": {"target": "T1, CYP3A4", "assay": "Metabolic clearance rate of CK with recombinant CYP3A4 under ketoconazole", "design": "purchased Cypex Ltd. (U.K.)", "conditions": "recombinant CYP3A4, CK 50 μM, ketoconazole 1 μM", "method": "as §1, §2"}, "[3]": {"conditions": "CYP3A4 in HLMs, ketoconazole values ref 17"}}, "note": "Values joined by “and” are separate entries in the source; they are usually repeats but may differ in a detail not shown here. Equal entries are not always repeated.", "data": [{"compound": "CC(C)=CCC[C@](C)(OC1O[C@H](CO)[C@@H](O)[C@H](O)[C@H]1O)[C@H]1CC[C@]2(C)[C@@H]1[C@H](O)C[C@@H]1[C@@]3(C)CC[C@H](O)C(C)(C)[C@@H]3CC[C@]12C", "note": "(stereo partly drawn) [CK, 20-O-β-(D-glucopyranosyl)-20(S)-protopanaxadiol]", "values": [{"measurement": "metabolic clearance rate (MCR) of CK, of that of the control", "setting": "CYP2C9", "value": "73.5±20.9% and 73.5%"}, {"measurement": "IC50 of CK higher than that of ketoconazole", "setting": "CYP3A4 [1]; [3]", "value": "41-123 fold"}, {"measurement": "Ki of CK higher than that of ketoconazole", "setting": "CYP3A4 [1]; [3]", "value": 761, "unit": "fold"}, {"measurement": "type of inhibition of CYP3A4", "setting": "CYP3A4 [1]; HLMs, Dixon and S/V versus [I] plots", "value": "noncompetitive"}, {"measurement": "IC50", "setting": "CYP3A4 [1]; HLMs, midazolam 1-hydroxylation, midazolam 5 μM, CK 10–100 μM", "value": "9.83 µM and 9.82 µM"}, {"measurement": "Ki", "setting": "CYP3A4 [1]; HLMs, midazolam 5–50 μM, secondary plot of Lineweaver–Burk slopes", "value": 11.4, "unit": "µM"}, {"measurement": "inhibitor potency class for CYP3A4", "setting": "CYP3A4 [1]; classified by IC50 according to Kong et al", "value": "potent (potent, if IC50≤ 20 μg/mL or ≤10 μM)"}, {"measurement": "MCR of CK, of that of the control", "setting": "CYP3A4 [2]", "value": 13.2, "unit": "%"}]}]}
